This is an account of results in paper PMC9347360 (RSC Chemical Biology, 2022).

Where a SMILES comes first, the peptide text is derived from it.

In assay [1] the target is T1, wild type BRD1-BD (Homo sapiens, UniProt O95696).
T1 sequence (O95696 562-666 limits assumed): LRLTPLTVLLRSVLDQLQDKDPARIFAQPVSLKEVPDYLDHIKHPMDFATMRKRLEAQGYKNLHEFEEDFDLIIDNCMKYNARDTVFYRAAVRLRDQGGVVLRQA
In words: ITC binding to wild type BRD1 bromodomain.

Assay [2] has as its target BRD4-BD1. The experiment in a line: ITC binding to BRD4-BD1. The settings on record: BRD4-BD1 Kd (ref 36) compared to that of BRD1-BD.
Assay [3] concerns the target BRD4-BD1. The conditions noted are these: as measured previously; cited from earlier work.

Broadly, the Kd is the constant that tells how readily two partners part at equilibrium. Turning to `CC(=O)NCCCC[C@H](NC(=O)CNC(=O)[C@H](C)NC(=O)[C@H](C)NC(=O)[C@H](CCCCNC(C)=O)NC(=O)[C@H](C)N)C(=O)N[C@@H](CC(C)C)C(=O)N[C@@H](CCCCNC(C)=O)C(=O)N[C@@H](C)C(N)=O` [peptide 6] (H-AK(Ac)AAGK(Ac)LK(Ac)A-NH2), the Kd in assay [1] is 24.5 ± 11.7 µM; in assay [3] it was 353 µM. Moreover, the “Kd for BRD4-BD1 relative to BRD1-BD (fold higher)” value in assay [2] was “about 15 fold”.
